According to the supplement of paper PMC5662764:
± gives the standard deviation of the averaged measurements.

Legend:
Test in all cases: normalised growth rate inhibition (GR value) relative to DMSO control (GR (1 = untreated growth, 0 = cytostasis, <0 = cytotoxic)); higher = less growth inhibition
Details in all cases: 72 h
MDAMB231 = system: MDAMB231
Protocol: (§1)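 Breast cancer cell lines (BT-20, Hs 578T, MCF 10A, MCF7, MDA-MB-231, SK-BR-3) were plated in 384-well plates and treated 24 h later with drugs at six concentrations (0.04-10 µM). Viable cells were counted by Hoechst/dead-cell-stain imaging at 0 and 72 h. Counts were normalised to DMSO controls on the same plate to give the relative cell count and the growth-rate inhibition (GR) value; technical plate triplicates were averaged for each biological replicate.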

MCF10A = system: MCF10A
Protocol: as §1

BT20 = system: BT20
Protocol: as §1

MCF7 = system: MCF7
Protocol: as §1

SKBR3 = system: SKBR3
Protocol: as §1

HS578T = system: HS578T
Protocol: as §1

CCOc1cc2ncc(C#N)c(Nc3ccc(F)c(Cl)c3)c2cc1NC(=O)/C=C/CN(C)C [pelitinib]
normalised growth rate inhibition (MDAMB231; 0.04 µM): 1.05 ± 0.042
normalised growth rate inhibition (MDAMB231; 0.12 µM): 1.03 ± 0.051
normalised growth rate inhibition (MDAMB231; 0.37 µM): 0.88 ± 0.043
normalised growth rate inhibition (MDAMB231; 1.11 µM): 0.75 ± 0.11
normalised growth rate inhibition (MDAMB231; 3.33 µM): 0.318 ± 0.18
normalised growth rate inhibition (MDAMB231; 10 µM): -0.143 ± 0.073
normalised growth rate inhibition (MCF10A; 0.04 µM): 0.542 ± 0.25
normalised growth rate inhibition (MCF10A; 0.12 µM): 0.267 ± 0.27
normalised growth rate inhibition (MCF10A; 0.37 µM): 0.115 ± 0.042
normalised growth rate inhibition (MCF10A; 1.11 µM): 0.129 ± 0.04
normalised growth rate inhibition (MCF10A; 3.33 µM): 0.111 ± 0.042
normalised growth rate inhibition (MCF10A; 10 µM): -0.017 ± 0.046
normalised growth rate inhibition (BT20; 0.04 µM): 0.966 ± 0.066
normalised growth rate inhibition (BT20; 0.12 µM): 0.877 ± 0.099
normalised growth rate inhibition (BT20; 0.37 µM): 0.7676 ± 0.006
normalised growth rate inhibition (BT20; 1.11 µM): 0.697 ± 0.037
normalised growth rate inhibition (BT20; 3.33 µM): 0.594 ± 0.13
normalised growth rate inhibition (BT20; 10 µM): -0.241 ± 0.14
normalised growth rate inhibition (MCF7; 0.04 µM): 1.06 ± 0.061
normalised growth rate inhibition (MCF7; 0.12 µM): 1.03 ± 0.12
normalised growth rate inhibition (MCF7; 0.37 µM): 0.935 ± 0.068
normalised growth rate inhibition (MCF7; 1.11 µM): 0.763 ± 0.14
normalised growth rate inhibition (MCF7; 3.33 µM): 0.33 ± 0.14
normalised growth rate inhibition (MCF7; 10 µM): -0.164 ± 0.085
normalised growth rate inhibition (SKBR3; 0.04 µM): 0.618 ± 0.21
normalised growth rate inhibition (SKBR3; 0.12 µM): 0.332 ± 0.21
normalised growth rate inhibition (SKBR3; 0.37 µM): -0.0906 ± 0.18
normalised growth rate inhibition (SKBR3; 1.11 µM): -0.0946 ± 0.17
normalised growth rate inhibition (SKBR3; 3.33 µM): -0.052 ± 0.16
normalised growth rate inhibition (SKBR3; 10 µM): -0.227 ± 0.096
normalised growth rate inhibition (HS578T; 0.04 µM): 0.9931 ± 0.0014
normalised growth rate inhibition (HS578T; 0.12 µM): 0.956 ± 0.052
normalised growth rate inhibition (HS578T; 0.37 µM): 0.841 ± 0.042
normalised growth rate inhibition (HS578T; 1.11 µM): 0.79 ± 0.035
normalised growth rate inhibition (HS578T; 3.33 µM): 0.569 ± 0.33
normalised growth rate inhibition (HS578T; 10 µM): -0.122 ± 0.026

Cc1cnc(Nc2ccc(OCCN3CCCC3)cc2)nc1Nc1cccc(S(=O)(=O)NC(C)(C)C)c1
normalised growth rate inhibition (MDAMB231; 0.04 µM): 1.01 ± 0.074
normalised growth rate inhibition (MDAMB231; 0.12 µM): 0.934 ± 0.075
normalised growth rate inhibition (MDAMB231; 0.37 µM): 0.877 ± 0.11
normalised growth rate inhibition (MDAMB231; 1.11 µM): 0.643 ± 0.19
normalised growth rate inhibition (MDAMB231; 3.33 µM): 0.104 ± 0.19
normalised growth rate inhibition (MDAMB231; 10 µM): -0.306 ± 0.15
normalised growth rate inhibition (MCF10A; 0.04 µM): 0.989 ± 0.019
normalised growth rate inhibition (MCF10A; 0.12 µM): 0.964 ± 0.018
normalised growth rate inhibition (MCF10A; 0.37 µM): 0.938 ± 0.028
normalised growth rate inhibition (MCF10A; 1.11 µM): 0.876 ± 0.041
normalised growth rate inhibition (MCF10A; 3.33 µM): 0.512 ± 0.19
normalised growth rate inhibition (MCF10A; 10 µM): 0.0536 ± 0.034
normalised growth rate inhibition (BT20; 0.04 µM): 1.04 ± 0.029
normalised growth rate inhibition (BT20; 0.12 µM): 0.969 ± 0.0097
normalised growth rate inhibition (BT20; 0.37 µM): 0.934 ± 0.022
normalised growth rate inhibition (BT20; 1.11 µM): 0.823 ± 0.031
normalised growth rate inhibition (BT20; 3.33 µM): 0.629 ± 0.024
normalised growth rate inhibition (BT20; 10 µM): -0.141 ± 0.14
normalised growth rate inhibition (MCF7; 0.04 µM): 1.02 ± 0.06
normalised growth rate inhibition (MCF7; 0.12 µM): 0.96 ± 0.079
normalised growth rate inhibition (MCF7; 0.37 µM): 0.813 ± 0.11
normalised growth rate inhibition (MCF7; 1.11 µM): 0.545 ± 0.23
normalised growth rate inhibition (MCF7; 3.33 µM): 0.0996 ± 0.12
normalised growth rate inhibition (MCF7; 10 µM): -0.272 ± 0.058
normalised growth rate inhibition (SKBR3; 0.04 µM): 1.07 ± 0.082
normalised growth rate inhibition (SKBR3; 0.12 µM): 0.997 ± 0.013
normalised growth rate inhibition (SKBR3; 0.37 µM): 0.907 ± 0.023
normalised growth rate inhibition (SKBR3; 1.11 µM): 0.766 ± 0.065
normalised growth rate inhibition (SKBR3; 3.33 µM): 0.501 ± 0.11
normalised growth rate inhibition (SKBR3; 10 µM): -0.201 ± 0.095
normalised growth rate inhibition (HS578T; 0.04 µM): 1.01 ± 0.019
normalised growth rate inhibition (HS578T; 0.12 µM): 0.986 ± 0.019
normalised growth rate inhibition (HS578T; 0.37 µM): 0.887 ± 0.03
normalised growth rate inhibition (HS578T; 1.11 µM): 0.655 ± 0.066
normalised growth rate inhibition (HS578T; 3.33 µM): 0.258 ± 0.1
normalised growth rate inhibition (HS578T; 10 µM): -0.184 ± 0.17
